One series deals with T1, Estrogen receptor (Homo sapiens, UniProt P03372).
T1 sequence (P03372 whole entry): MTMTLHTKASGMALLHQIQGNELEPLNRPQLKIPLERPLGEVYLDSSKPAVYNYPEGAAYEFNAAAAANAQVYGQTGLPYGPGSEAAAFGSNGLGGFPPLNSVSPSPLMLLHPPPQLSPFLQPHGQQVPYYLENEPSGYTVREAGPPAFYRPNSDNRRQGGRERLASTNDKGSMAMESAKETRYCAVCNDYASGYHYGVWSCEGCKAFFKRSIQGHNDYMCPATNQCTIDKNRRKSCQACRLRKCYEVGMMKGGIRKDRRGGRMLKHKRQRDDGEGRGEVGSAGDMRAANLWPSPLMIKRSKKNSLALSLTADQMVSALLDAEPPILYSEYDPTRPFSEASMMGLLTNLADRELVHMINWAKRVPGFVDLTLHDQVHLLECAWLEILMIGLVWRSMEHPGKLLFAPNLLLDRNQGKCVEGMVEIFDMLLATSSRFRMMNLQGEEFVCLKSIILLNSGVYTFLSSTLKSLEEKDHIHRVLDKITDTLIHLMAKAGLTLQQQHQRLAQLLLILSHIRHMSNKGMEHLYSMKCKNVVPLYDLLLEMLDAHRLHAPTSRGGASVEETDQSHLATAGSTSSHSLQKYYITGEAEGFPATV
To be noted: sf9.

The nature of series [1]: DRUGMATRIX: Interleukin IL-1 radioligand binding (ligand: [125I] interleukin 1beta). The class given is cell membranes, Membrane. To be noted: nih3t3; Not Active = under 50% inhibition at 10 µM.
Series [2] concerns the target T2, 5-hydroxytryptamine receptor 2C (Homo sapiens, UniProt P28335).
T2 sequence (P28335 whole entry): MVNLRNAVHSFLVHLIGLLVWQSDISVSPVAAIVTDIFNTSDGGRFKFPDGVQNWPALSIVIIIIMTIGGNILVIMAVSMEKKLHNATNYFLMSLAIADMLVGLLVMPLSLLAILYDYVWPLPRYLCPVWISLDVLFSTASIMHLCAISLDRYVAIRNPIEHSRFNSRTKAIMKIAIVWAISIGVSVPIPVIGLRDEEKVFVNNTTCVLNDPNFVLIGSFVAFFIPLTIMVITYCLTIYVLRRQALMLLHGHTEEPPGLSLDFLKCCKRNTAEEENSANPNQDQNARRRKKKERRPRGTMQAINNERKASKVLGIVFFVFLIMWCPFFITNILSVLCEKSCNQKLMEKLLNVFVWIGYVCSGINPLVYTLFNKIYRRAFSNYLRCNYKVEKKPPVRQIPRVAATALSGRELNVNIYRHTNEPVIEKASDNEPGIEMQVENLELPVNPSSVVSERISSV
Put plainly: DRUGMATRIX: Serotonin (5-Hydroxytryptamine) 5-HT2C radioligand binding (ligand: [3H] Mesulergine). To be noted: Not Active = under 50% inhibition at 10 µM; for IC50 / Ki: cho-k1. The class given is cell membranes, CHO-K1, Membrane.

The nature of series [3]: DRUGMATRIX: Glutamate, Kainate radioligand binding (ligand: [3H] Kainic acid). The class given is cell membranes, Rattus norvegicus, Wistar, Brain, Membrane. To be noted: Not Active = under 50% inhibition at 10 µM.
A further series concerns the target T3, Cytochrome P450 1A2 (Homo sapiens, UniProt P05177). Further: in other assays of this panel Not Active means under 50% inhibition at 10 µM.
T3 sequence (P05177 whole entry): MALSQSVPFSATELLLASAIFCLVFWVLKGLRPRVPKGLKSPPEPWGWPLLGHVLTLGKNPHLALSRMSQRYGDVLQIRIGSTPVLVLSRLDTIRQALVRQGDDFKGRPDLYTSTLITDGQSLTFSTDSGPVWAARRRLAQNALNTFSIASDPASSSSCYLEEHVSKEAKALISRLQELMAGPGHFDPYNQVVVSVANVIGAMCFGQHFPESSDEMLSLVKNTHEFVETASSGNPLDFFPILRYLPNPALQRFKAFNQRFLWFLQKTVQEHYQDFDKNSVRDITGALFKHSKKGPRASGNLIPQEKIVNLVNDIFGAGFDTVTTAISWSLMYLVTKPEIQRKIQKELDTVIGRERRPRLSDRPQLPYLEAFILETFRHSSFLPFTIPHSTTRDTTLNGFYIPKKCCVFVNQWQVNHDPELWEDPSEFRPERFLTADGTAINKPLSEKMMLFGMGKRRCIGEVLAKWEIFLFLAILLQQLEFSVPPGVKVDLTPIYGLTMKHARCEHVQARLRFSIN
To be noted: bti-tn-5b1-4.

The target of series [4] is T4, C-C chemokine receptor type 4 (Homo sapiens, UniProt P51679). Further: in other assays of this panel Not Active means under 50% inhibition at 10 µM.
T4 sequence (P51679 whole entry): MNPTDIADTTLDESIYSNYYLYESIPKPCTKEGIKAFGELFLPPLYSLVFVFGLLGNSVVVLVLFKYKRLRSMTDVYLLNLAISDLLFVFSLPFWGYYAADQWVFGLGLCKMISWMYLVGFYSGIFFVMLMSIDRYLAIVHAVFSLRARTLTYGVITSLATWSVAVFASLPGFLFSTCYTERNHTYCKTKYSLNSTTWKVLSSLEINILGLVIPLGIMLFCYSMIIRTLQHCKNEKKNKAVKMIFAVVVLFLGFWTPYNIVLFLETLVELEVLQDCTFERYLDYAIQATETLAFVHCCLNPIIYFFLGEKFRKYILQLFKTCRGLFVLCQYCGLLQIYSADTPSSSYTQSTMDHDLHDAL
The series is classed as cell membranes, Membrane. To be noted: chem-1.

In series [5] the target is T5, Polyunsaturated fatty acid lipoxygenase ALOX15 (Oryctolagus cuniculus, UniProt P12530).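 Further: inhibition of 15-lipoxygenase enzyme activity measured with linoleic acid as the substrate; in other assays of this panel Not Active means under 50% inhibition at 10 µM.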
T5 sequence (P12530 whole entry): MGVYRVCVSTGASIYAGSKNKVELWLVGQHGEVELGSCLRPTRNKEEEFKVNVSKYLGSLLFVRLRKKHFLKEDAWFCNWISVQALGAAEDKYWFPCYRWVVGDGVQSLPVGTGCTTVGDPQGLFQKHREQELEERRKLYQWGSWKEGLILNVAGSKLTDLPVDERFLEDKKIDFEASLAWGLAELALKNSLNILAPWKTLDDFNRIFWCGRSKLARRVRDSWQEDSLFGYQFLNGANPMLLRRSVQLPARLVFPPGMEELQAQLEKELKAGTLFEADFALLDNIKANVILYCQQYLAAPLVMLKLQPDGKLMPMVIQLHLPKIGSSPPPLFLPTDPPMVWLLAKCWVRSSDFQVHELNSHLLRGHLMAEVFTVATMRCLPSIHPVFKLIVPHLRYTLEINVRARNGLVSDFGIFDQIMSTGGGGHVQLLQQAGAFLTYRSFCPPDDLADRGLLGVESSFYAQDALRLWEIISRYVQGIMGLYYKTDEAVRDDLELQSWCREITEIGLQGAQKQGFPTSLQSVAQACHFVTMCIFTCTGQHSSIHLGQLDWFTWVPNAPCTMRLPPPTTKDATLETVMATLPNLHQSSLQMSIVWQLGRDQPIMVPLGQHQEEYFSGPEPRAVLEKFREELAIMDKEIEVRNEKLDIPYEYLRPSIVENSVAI
Put plainly: biochemical. The class given is tissue-based, Reticulocytes. To be noted: reticulocytes.

pIC50, pKi: −log10 of the molar value.

In the case of `CC(C)Cc1ccc([C@@H](C)C(=O)O)cc1` [(R)-IBUPROPHEN], the IC50 result (against Estrogen receptor; in series [1]; in series [2]; in series [3]; on Cytochrome P450 1A2; in series [4]) was “Not Active” throughout. Moreover, in series [5], the IC50 result is “Not Active”. Also, the Ki result (in series [1]; in series [3]; on Cytochrome P450 1A2) was “Not Active” throughout.

As for `NC1CCN(c2nc3c(cc2F)c(=O)c(C(=O)O)cn3-c2ccc(F)cc2F)C1` (stereo not given) [TOSUFLOXACIN], the IC50 entry (on Estrogen receptor; in series [1]; in series [2]; in series [3]; against Cytochrome P450 1A2; in series [4]) was “Not Active” in each case. In addition, the IC50 entry in series [5] is given as “Not Active”. Moreover, the Ki entry (in series [1]; in series [3]; at Cytochrome P450 1A2) was “Not Active” throughout.

Consider `O=C1Nc2ccc(Cl)cc2C(c2ccccc2Cl)=NC1O` (stereo not given) [LORAZEPAM], for which the IC50 entry (on Estrogen receptor; in series [1]; in series [2]; in series [3]; against Cytochrome P450 1A2; in series [4]) was “Not Active” throughout. For the same compound, the IC50 entry in series [5] is “Not Active”. The Ki result (in series [1]; in series [3]; at Cytochrome P450 1A2) was “Not Active” throughout.

As to `CNC1(c2ccccc2Cl)CCCCC1=O` (stereo not given) [KETAMINE], the IC50 result (at Estrogen receptor; in series [1]; in series [2]; in series [3]; against Cytochrome P450 1A2; in series [4]) was “Not Active” throughout. Besides, the IC50 entry in series [5] is “Not Active”. For the same compound, the Ki result (in series [1]; in series [3]; on Cytochrome P450 1A2) was “Not Active” each time.

For SODIUM ORTHOVANAD, the IC50 entry (on Estrogen receptor; in series [1]; in series [2]; in series [3]; on Cytochrome P450 1A2; in series [4]) was “Not Active” each time. Besides, in series [5], the IC50 entry is reported as “Not Active”. Besides, the Ki result (on Estrogen receptor; in series [1]; in series [2]; in series [3]; at Cytochrome P450 1A2; in series [4]) was “Not Active” each time. Further, in series [5], the Ki result was “Not Active”.

`CO[C@@H]1[C@@H](OC)[C@H](C)[C@@](O)(CC(=O)O)O[C@H]1[C@H](C)[C@H]1O[C@@]2(CC[C@@](C)([C@H]3CC[C@@](C)([C@@H]4O[C@@H]([C@H]5O[C@](C)(O)[C@H](C)C[C@@H]5C)C[C@@H]4O[C@@H]4C[C@H](OC)[C@@H](OC)[C@H](C)O4)O3)O2)C[C@H](O)[C@H]1C` [MADURAMICIN ACID]: the IC50 entry (at Estrogen receptor; in series [1]; in series [3]; against Cytochrome P450 1A2; in series [4]; in series [5]) was “Not Active” each time. Moreover, the Ki result (in series [1]; in series [3]; at Cytochrome P450 1A2) was “Not Active” in each case. Besides, the pIC50 in series [2] (read-out: IC50) was 7.47. Moreover, the pKi in series [2] (read-out: Ki) was 7.74.

In the case of `Clc1ccccc1CN1CCc2sccc2C1` [TICLOPIDINE], the IC50 result (against Estrogen receptor; in series [1]; in series [2]; in series [3]; at Cytochrome P450 1A2; in series [4]) was “Not Active” in each case. Moreover, the IC50 result in series [5] is reported as “Not Active”. The Ki result (in series [1]; in series [3]; at Cytochrome P450 1A2) was “Not Active” each time.

Turning to `CS(=O)(=O)c1ccc([C@@H](O)[C@@H](CO)NC(=O)C(Cl)Cl)cc1` [THIAMPHENICOL], the IC50 entry (against Estrogen receptor; in series [1]; in series [2]; in series [3]; against Cytochrome P450 1A2; in series [4]) was “Not Active” in each case. The IC50 entry in series [5] is listed as “Not Active”. The Ki entry (in series [1]; in series [3]; at Cytochrome P450 1A2) was “Not Active” each time.

In the case of `O=C(Oc1ccccc1C(=O)O)c1ccccc1O` [SALSALATE], the IC50 result (at Estrogen receptor; in series [1]; in series [2]; in series [3]; against Cytochrome P450 1A2; in series [4]) was “Not Active” throughout. In addition, in series [5], the IC50 result is on record as “Not Active”. For the same compound, the Ki result (in series [1]; in series [3]; on Cytochrome P450 1A2) was “Not Active” in each case.

On to MANGANESE CHLORIDE ANHYDROUS, for which the IC50 result (at Estrogen receptor; in series [1]; in series [2]; in series [3]; against Cytochrome P450 1A2; in series [4]) was “Not Active” each time. Also, the IC50 entry in series [5] is “Not Active”. In addition, the Ki entry (at Estrogen receptor; in series [1]; in series [2]; in series [3]; on Cytochrome P450 1A2; in series [4]) was “Not Active” in each case. Besides, in series [5], the Ki entry is on record as “Not Active”.

For `Cc1ccc(NC(=O)c2ccc(CN3CCN(C)CC3)cc2)cc1Nc1nccc(-c2cccnc2)n1` [IMATINIB], the IC50 result (at Estrogen receptor; in series [2]; at Cytochrome P450 1A2; in series [4]; in series [5]) was “Not Active” throughout. Moreover, the Ki entry at Cytochrome P450 1A2 was “Not Active”.

For the origin of these results see ChEMBL document CHEMBL1909046, “DrugMatrix in vitro pharmacology data”.
